The values that follow come from patent publication US9926282B2, “Phthalazinones and isoquinolinones as rock inhibitors” (BRISTOL-MYERS SQUIBB COMPANY, priority 2013, dated 2018).

The structures appear in SMILES notation. Structures can show the parent of a compound that is named as a salt.

The IC50 is the concentration that gives 50% inhibition.

ROCK2, sequence (O75116 whole entry, species assumed): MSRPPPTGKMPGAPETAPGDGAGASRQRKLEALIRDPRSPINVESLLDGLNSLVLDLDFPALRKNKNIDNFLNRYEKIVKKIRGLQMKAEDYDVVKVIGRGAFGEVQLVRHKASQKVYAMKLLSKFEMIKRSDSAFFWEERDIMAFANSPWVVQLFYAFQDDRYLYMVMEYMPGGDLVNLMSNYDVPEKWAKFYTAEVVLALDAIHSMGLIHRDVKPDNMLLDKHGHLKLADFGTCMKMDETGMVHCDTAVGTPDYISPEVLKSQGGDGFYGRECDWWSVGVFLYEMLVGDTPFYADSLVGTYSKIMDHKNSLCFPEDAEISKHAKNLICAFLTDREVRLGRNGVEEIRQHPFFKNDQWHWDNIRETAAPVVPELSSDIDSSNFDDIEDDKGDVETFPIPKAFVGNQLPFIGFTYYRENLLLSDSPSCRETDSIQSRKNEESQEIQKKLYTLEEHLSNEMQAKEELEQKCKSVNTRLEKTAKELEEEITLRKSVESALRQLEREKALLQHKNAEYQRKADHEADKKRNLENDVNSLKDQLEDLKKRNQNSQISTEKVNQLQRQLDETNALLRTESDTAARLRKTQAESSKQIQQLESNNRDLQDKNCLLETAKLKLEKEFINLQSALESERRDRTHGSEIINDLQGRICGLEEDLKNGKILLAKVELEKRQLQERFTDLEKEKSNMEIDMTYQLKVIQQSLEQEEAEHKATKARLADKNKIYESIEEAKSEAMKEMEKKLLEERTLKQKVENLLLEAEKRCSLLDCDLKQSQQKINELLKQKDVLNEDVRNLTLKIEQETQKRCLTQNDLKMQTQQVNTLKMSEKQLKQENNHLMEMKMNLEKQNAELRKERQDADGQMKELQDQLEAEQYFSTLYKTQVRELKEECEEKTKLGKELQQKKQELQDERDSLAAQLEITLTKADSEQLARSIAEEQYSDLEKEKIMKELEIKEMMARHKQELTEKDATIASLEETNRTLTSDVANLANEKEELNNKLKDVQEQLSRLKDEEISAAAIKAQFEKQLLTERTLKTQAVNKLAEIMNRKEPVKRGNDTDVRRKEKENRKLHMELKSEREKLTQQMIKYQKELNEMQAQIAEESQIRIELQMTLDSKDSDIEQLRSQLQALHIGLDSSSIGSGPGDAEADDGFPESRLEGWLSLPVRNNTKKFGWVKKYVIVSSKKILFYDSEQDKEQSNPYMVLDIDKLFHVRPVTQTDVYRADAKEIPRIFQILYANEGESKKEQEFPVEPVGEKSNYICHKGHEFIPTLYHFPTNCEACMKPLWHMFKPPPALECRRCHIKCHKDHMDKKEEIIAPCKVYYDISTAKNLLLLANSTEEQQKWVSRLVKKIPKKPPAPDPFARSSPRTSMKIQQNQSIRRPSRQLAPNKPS

The first assay has as its target ROCK2 (Homo sapiens (Human), UniProt O75116). The assay can be described thus: ROCK assay (LABCHIP peptide phosphorylation), ROCK2. In kind it is biochemical. To be noted: 5 μM ATP, 1.5 μM peptide substrate.
Turning to `Cc1cc(NC(=O)c2cnn3ccccc23)ccc1-c1n[nH]c(=O)c2ccccc12` [Example 310, N-[3-methyl-4-(4-oxo-3,4-dihydrophthalazin-1-yl)phenyl]pyrazolo [1,5-a]pyridine-3-carboxamide], the half-maximal inhibitory concentration (IC50) fell in the range of 0.1 to 100 nM.

The compound `O=C(Cc1ccc(-c2n[nH]c(=O)c3ccccc23)cc1)N1CCc2ccccc2C1` [Example 4, 4-{4-[2-oxo-2-(1,2,3,4-tetrahydroisoquinolin-2-yl)ethyl]phenyl}-1,2-dihydrophthalazin-1-one] showed an IC50 of 101 to 1000 nM.

In turn, `O=C(Nc1ccc(-c2n[nH]c(=O)c3ccccc23)cc1)c1csc(-c2cc(F)cc(F)c2)n1` [Example 49, 2-(3,5-difluorophenyl)-N-[4-(4-oxo-3,4-dihydrophthalazin-1-yl)phenyl]-1,3-thiazole-4-carboxamide] gave an IC50 of 0.1 to 100 nM.

Compound `O=C(Cc1ccc(-c2n[nH]c(=O)c3ccccc23)cc1)Nc1cccnc1` [Example 5, 2-[4-(4-oxo-3,4-dihydrophthalazin-1-yl)phenyl]-N-(pyridin-3-yl)acetamide] showed an IC50 of 101 to 1000 nM.

On to `O=C(Cc1ccc(-c2n[nH]c(=O)c3ccccc23)cc1)N1Cc2ccccc2C1` [Example 1, 4-(4-(2-(Isoindolin-2-yl)-2-oxoethyl)phenyl)phthalazin-1(2H)-one], for which the IC50 lay within 0.1 to 100 nM.

On to `O=C(Cc1ccc(-c2n[nH]c(=O)c3ccccc23)cc1)NCc1ccccc1` [Example 6, N-benzyl-2-[4-(4-oxo-3,4-dihydrophthalazin-1-yl)phenyl]acetamide], for which the IC50 lay within 101 to 1000 nM.

`O=C(Oc1ccc(-c2n[nH]c(=O)c3ccccc23)cc1)N1Cc2ccccc2C1` [Example 68, 4-(4-Oxo-3,4-dihydrophthalazin-1-yl)phenyl isoindoline-2-carboxylate]: the IC50 lay in the range of 0.1 to 100 nM.

As to `O=C(Nc1ccc(-c2n[nH]c(=O)c3ccccc23)cc1)c1csc(-c2ccncc2)n1` [Example 45, N-(4-(4-Oxo-3,4-dihydrophthalazin-1-yl)phenyl)-2-(pyridin-4-yl)thiazole-4-carboxamide], the IC50 fell in the range of 0.1 to 100 nM.

Regarding `CN(Cc1ccccc1)C(=O)Cc1ccc(-c2n[nH]c(=O)c3ccccc23)cc1` [Example 8, N-benzyl-N-methyl-2-[4-(4-oxo-3,4-dihydrophthalazin-1-yl)phenyl]acetamide], the 50% inhibitory concentration (IC50) lay in the range of 1000 to 50000 nM.

For the compound `O=C(Cc1ccc(-c2n[nH]c(=O)c3ccccc23)cc1)Nc1ccncc1` [Example 7, 2-[4-(4-oxo-3,4-dihydrophthalazin-1-yl)phenyl]-N-(pyridin-4-yl)acetamide], the IC50 was 0.1 to 100 nM.

The next assay deals with ROCK1 (Homo sapiens (Human), UniProt Q13464). Briefly: ROCK assay (LABCHIP peptide phosphorylation), ROCK1. It counts as biochemical. As to conditions: 5 μM ATP, 1.5 μM peptide substrate; read-out: ROCK1 IC50.
ROCK1, sequence (Q13464 whole entry, species assumed): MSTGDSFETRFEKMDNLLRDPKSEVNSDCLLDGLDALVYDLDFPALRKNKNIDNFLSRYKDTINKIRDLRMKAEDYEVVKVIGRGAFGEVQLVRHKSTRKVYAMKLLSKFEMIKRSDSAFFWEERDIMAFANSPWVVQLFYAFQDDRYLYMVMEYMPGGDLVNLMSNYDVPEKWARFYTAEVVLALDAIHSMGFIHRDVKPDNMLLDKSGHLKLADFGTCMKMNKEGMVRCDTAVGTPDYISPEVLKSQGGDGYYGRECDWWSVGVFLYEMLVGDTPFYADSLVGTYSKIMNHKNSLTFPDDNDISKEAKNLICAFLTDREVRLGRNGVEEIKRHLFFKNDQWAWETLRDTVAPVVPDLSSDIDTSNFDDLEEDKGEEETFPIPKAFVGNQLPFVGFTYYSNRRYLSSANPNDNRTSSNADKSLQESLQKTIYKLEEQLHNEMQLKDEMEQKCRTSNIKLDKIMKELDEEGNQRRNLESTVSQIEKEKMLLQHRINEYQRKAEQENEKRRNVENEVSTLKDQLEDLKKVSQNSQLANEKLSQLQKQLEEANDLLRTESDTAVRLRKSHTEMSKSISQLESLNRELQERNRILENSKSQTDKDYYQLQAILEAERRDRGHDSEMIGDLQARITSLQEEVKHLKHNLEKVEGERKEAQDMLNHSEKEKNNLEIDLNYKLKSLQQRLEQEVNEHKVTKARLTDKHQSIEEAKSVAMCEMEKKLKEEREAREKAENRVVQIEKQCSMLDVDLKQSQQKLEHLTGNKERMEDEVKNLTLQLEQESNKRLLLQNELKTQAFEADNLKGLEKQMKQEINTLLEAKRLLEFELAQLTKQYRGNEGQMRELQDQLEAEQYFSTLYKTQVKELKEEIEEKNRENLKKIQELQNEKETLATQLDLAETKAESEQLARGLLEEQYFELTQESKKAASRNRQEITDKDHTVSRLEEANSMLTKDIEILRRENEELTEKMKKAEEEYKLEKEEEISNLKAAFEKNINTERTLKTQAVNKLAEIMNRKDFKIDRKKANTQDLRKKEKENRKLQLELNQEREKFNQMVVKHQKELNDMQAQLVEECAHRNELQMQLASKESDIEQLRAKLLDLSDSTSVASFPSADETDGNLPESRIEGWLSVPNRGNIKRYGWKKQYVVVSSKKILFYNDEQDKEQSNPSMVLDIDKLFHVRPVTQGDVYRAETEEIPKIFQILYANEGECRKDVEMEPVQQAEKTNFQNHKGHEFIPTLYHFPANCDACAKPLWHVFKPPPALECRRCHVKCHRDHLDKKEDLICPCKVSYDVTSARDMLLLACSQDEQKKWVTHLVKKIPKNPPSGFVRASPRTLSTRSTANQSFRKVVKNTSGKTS
As for `Cc1cc(NC(=O)c2cnn3ccccc23)ccc1-c1n[nH]c(=O)c2ccccc12` [Example 310, N-[3-methyl-4-(4-oxo-3,4-dihydrophthalazin-1-yl)phenyl]pyrazolo [1,5-a]pyridine-3-carboxamide], the IC50 was 101 to 1000 nM.

In the case of `Cc1ccc2oc(Nc3ccc(-c4n[nH]c(=O)c5ccccc45)cc3)nc2c1` [Example 86, 4-{4-[(5-Methyl-1,3-benzoxazol-2-yl)amino]phenyl}-1,2-dihydrophthalazin-1-one], the IC50 lay in the range of 101 to 1000 nM.

`CC1(C)OB(c2ccc(CC(=O)N3Cc4ccccc4C3)c(F)c2)OC1(C)C` [Example 36, 2-(2-Fluoro-4-(4,4,5,5-tetramethyl-1,3,2-dioxaborolan-2-yl)phenyl)-1-(isoindolin-2-yl)ethanone]: the IC50 was 1000 to 50000 nM.

As for `O=C(Nc1ccc(-c2n[nH]c(=O)c3ccccc23)cc1)c1cnn(C2CCC2)c1` [Example 385, TFA], the IC50 was 0.1 to 100 nM.

Consider `O=C(Nc1ccc(-c2n[nH]c(=O)c3ccccc23)cc1)c1cn[nH]c1` [Example 391, N-(4-(4-Oxo-3,4-dihydrophthalazin-1-yl)phenyl)-1H-pyrazole-4-carboxamide, TFA], for which the IC50 lay in the range of 101 to 1000 nM.

In the case of `O=c1[nH]nc(-c2ccc(Nc3nc4ccccc4s3)cc2)c2ccccc12` [Example 84], the IC50 fell in the range of 101 to 1000 nM.

With `O=c1[nH]nc(-c2ccc(Nc3nnc(-c4ccccc4)s3)cc2)c2ccccc12` [Example 87, 4-(4-((5-Phenyl-1,3,4-thiadiazol-2-yl)amino)phenyl)phthalazin-1(2H)-one], the IC50 is 101 to 1000 nM.

In the case of `O=C(Nc1ccc(-c2c[nH]c(=O)c3ccccc23)cc1)c1ccc(N2CCOCC2)cc1` [Example 250, 4-Morpholino-N-(4-(1-oxo-1,2-dihydroisoquinolin-4-yl)phenyl)benzamide], the IC50 is 101 to 1000 nM.

Consider `O=C(Nc1ccc(-c2n[nH]c(=O)c3ccccc23)cc1)c1cnn2ccc(OCCO)cc12` [Example 186, 5-(2-hydroxyethoxy)-N-[4-(4-oxo-3,4-dihydrophthalazin-1-yl)phenyl]pyrazolo[1,5-a]pyridine-3-carboxamide], for which the IC50 lay within 101 to 1000 nM.

Take `O=C(Nc1ccc(-c2n[nH]c(=O)c3ccccc23)cc1)c1cnn(C2CCS(=O)(=O)C2)c1` (stereo not shown) [Example 396, 1-(1,1-Dioxidotetrahydrothiophen-3-yl)-N-(4-(4-oxo-3,4-dihydrophthalazin-1-yl)phenyl)-1H-pyrazole-4-carboxamide, TFA]: the IC50 was 101 to 1000 nM.

As to `O=C(Cc1ccc(-c2c[nH]c(=O)c3ccccc23)c(F)c1)N1Cc2ccccc2C1` [Example 256, 4-(2-Fluoro-4-(2-(isoindolin-2-yl)-2-oxoethyl)phenyl)isoquinolin-1(2H)-one], the IC50 fell in the range of 101 to 1000 nM.

Turning to `O=C(Nc1ccc(-c2n[nH]c(=O)c3ccccc23)c(CO)c1)c1nn(CCC2CCOCC2)c2ccccc12` [Example 361, N-(3-(Hydroxymethyl)-4-(4-oxo-3,4-dihydrophthalazin-1-yl)phenyl)-1-(2-(tetrahydro-2H-pyran-4-yl)ethyl)-1H-indazole-3-carboxamide], the IC50 lay within 101 to 1000 nM.

On to `CC(O)Cn1cc(C(=O)Nc2ccc(-c3n[nH]c(=O)c4ccccc34)cc2)cn1` (stereo not shown) [Example 387, 1-(2-Hydroxypropyl)-N-(4-(4-oxo-3,4-dihydrophthalazin-1-yl)phenyl)-1H-pyrazole-4-carboxamide], for which the IC50 lay in the range of 1000 to 50000 nM.

As for `CC(C)(O)Cn1nc(C(=O)Nc2ccc(-c3n[nH]c(=O)c4ccccc34)cc2F)c2ccccc21` [Example 358, N-(2-Fluoro-4-(4-oxo-3,4-dihydrophthalazin-1-yl)phenyl)-1-(2-hydroxy-2-methylpropyl)-1H-indazole-3-carboxamide], the half-inhibitory concentration (IC50) was in the range of 101 to 1000 nM.

Turning to `O=C(Nc1ccc(-c2n[nH]c(=O)c3ccccc23)cc1)c1cn2ccnc(Cl)c2n1` [Example 124, 8-chloro-N-[4-(4-oxo-3,4-dihydrophthalazin-1-yl)phenyl]imidazo[1,2-a]pyrazine-2-carboxamide], the IC50 lay in the range of 101 to 1000 nM.

Consider `O=C(Nc1ccc(-c2n[nH]c(=O)c3ccccc23)cc1)c1cnn(CC2CC2)c1` [Example 375, 1-(Cyclopropylmethyl)-N-(4-(4-oxo-3,4-dihydrophthalazin-1-yl)phenyl)-1H-pyrazole-4-carboxamide, TFA], for which the IC50 fell in the range of 0.1 to 100 nM.

As for `O=C(Nc1ccc(-c2n[nH]c(=O)c3ccccc23)cc1)c1cnn(CC(F)(F)C(F)F)c1` [Example 383, N-(4-(4-Oxo-3,4-dihydrophthalazin-1-yl)phenyl)-1-(2,2,3,3-tetrafluoropropyl)-1H-pyrazole-4-carboxamide, TFA], the IC50 lay within 101 to 1000 nM.

On to `O=C(Nc1ccc(-c2n[nH]c(=O)c3ccccc23)cc1)c1cnn(CC(F)(F)F)c1` [Example 376, N-(4-(4-Oxo-3,4-dihydrophthalazin-1-yl)phenyl)-1-(2,2,2-trifluoroethyl)-1H-pyrazole-4-carboxamide, TFA], for which the IC50 lay within 101 to 1000 nM.
